Results from ChEMBL document CHEMBL3885861, “Open TG-GATES”.

Species on record: Rattus norvegicus
Assay: Open TG-GATES - Regimen: Daily Repeat
Type: toxicity, organism-based, Sprague-Dawley
Design: regimen Daily Repeat, gender Male, age 6 weeks
Conditions: in vivo, po, 1200 mg/kg, route gavage, dose level Middle; for APTT / Bas / Eos / Fbg / Hb / Ht / Lym / MCH / MCHC / MCV / Mono / Neu / PT / Plat / RBC / Ret / WBC: tissue Blood; for KIDNEY_L / KIDNEY_R / KIDNEY_TOTAL: tissue Kidney; for LIVER: tissue Liver; for A/G / ALP / ALT / AST / BUN / CRE / Ca / Cl / DBIL / GLC / IP / K / LDH / Na / PL / RALB / TBIL / TC / TG / TP / gamma-GTP: tissue Plasma

## CCO [ALCOHOL]
72 h, time 3 day
  TERMINAL_BW: 236.1 g
  APTT: 17.5 s
  Bas: 0%
  Eos: 1.2%
  Fbg: 209 mg/dL
  Hb: 13.9 g/dL
  Ht: 41%
  Lym: 74.6%
  MCH: 21.6 pg
  MCHC: 33.8%
  MCV: 64 fL
  Mono: 5.8%
  Neu: 18%
  PT: 11.3 s
  Plat: 124.3 x10_4/uL
  RBC: 642.4 x10_4/ul
  Ret: 7.7%
  WBC: 106.2 x10_2/uL
  KIDNEY_L: 1.1 g
  KIDNEY_R: 1.1 g
  KIDNEY_TOTAL: 2.1 g
  LIVER: 11.5 g
  A/G: 2.3
  ALP: 854.8 IU/L
  ALT: 38.2 IU/L
  AST: 65 IU/L
  BUN: 20.2 mg/dL
  CRE: 0.6 mg/dL
  Ca: 11.2 mg/dL
  Cl: 104 meq/L
  DBIL: 0.026 mg/dL
  GLC: 208.2 mg/dL
  IP: 9 mg/dL
  K: 4.7 meq/L
  LDH: 113.6 IU/L
  Na: 141 meq/L
  PL: 145.6 mg/dL
  RALB: 4.1 g/dL
  TBIL: 0.3 mg/dL
  TC: 74.2 mg/dL
  TG: 89.2 mg/dL
  TP: 5.8 g/dL
  gamma-GTP: 1.4 IU/L
[…], time 7 day
  TERMINAL_BW: 268.6 g
  APTT: 18.1 s
  Bas: 0%
  Eos: 0.8%
  Fbg: 227.4 mg/dL
  Hb: 14.3 g/dL
  Ht: 42.2%
  Lym: 81.8%
  MCH: 21.3 pg
  MCHC: 33.8%
  MCV: 62.9 fL
  Mono: 6.2%
  Neu: 11.4%
  PT: 11 s
  Plat: 127.6 x10_4/uL
  RBC: 670.6 x10_4/ul
  Ret: 6.1%
  WBC: 112 x10_2/uL
  KIDNEY_L: 1.1 g
  KIDNEY_R: 1.2 g
  KIDNEY_TOTAL: 2.3 g
  LIVER: 13.2 g
  A/G: 2.3
  ALP: 946.6 IU/L
  ALT: 37.4 IU/L
  AST: 64.8 IU/L
  BUN: 20.8 mg/dL
  CRE: 0.5 mg/dL
  Ca: 10.6 mg/dL
  Cl: 103.8 meq/L
  DBIL: 0 mg/dL
  GLC: 202 mg/dL
  IP: 8.4 mg/dL
  K: 4.8 meq/L
  LDH: 108.4 IU/L
  Na: 141 meq/L
  PL: 154.4 mg/dL
  RALB: 4.1 g/dL
  TBIL: 0.3 mg/dL
  TC: 70.6 mg/dL
  TG: 132.4 mg/dL
  TP: 6 g/dL
  gamma-GTP: 1.4 IU/L
[…], time 14 day
  TERMINAL_BW: 302.2 g
  APTT: 18.2 s
  Bas: 0%
  Eos: 1.2%
  Fbg: 227 mg/dL
  Hb: 15.4 g/dL
  Ht: 45.5%
  Lym: 80%
  MCH: 20.6 pg
  MCHC: 33.9%
  MCV: 60.8 fL
  Mono: 5.4%
  Neu: 13.6%
  PT: 11.4 s
  Plat: 115.9 x10_4/uL
  RBC: 749 x10_4/ul
  Ret: 4.5%
  WBC: 119.1 x10_2/uL
  KIDNEY_L: 1.2 g
  KIDNEY_R: 1.2 g
  KIDNEY_TOTAL: 2.4 g
  LIVER: 13.7 g
  A/G: 1.8
  ALP: 821.6 IU/L
  ALT: 33 IU/L
  AST: 62.2 IU/L
  BUN: 19.2 mg/dL
  CRE: 0.5 mg/dL
  Ca: 10.8 mg/dL
  Cl: 105 meq/L
  DBIL: 0.018 mg/dL
  GLC: 205.6 mg/dL
  IP: 7.4 mg/dL
  K: 4.5 meq/L
  LDH: 104.4 IU/L
  Na: 141.8 meq/L
  PL: 159.8 mg/dL
  RALB: 3.9 g/dL
  TBIL: 0.3 mg/dL
  TC: 79 mg/dL
  TG: 114.2 mg/dL
  TP: 6.1 g/dL
  gamma-GTP: 1 IU/L
[…], time 28 day
  TERMINAL_BW: 371.8 g
  APTT: 17.5 s
  Bas: 0%
  Eos: 1.4%
  Fbg: 224 mg/dL
  Hb: 15.4 g/dL
  Ht: 46.3%
  Lym: 73.2%
  MCH: 19.1 pg
  MCHC: 33.3%
  MCV: 57.3 fL
  Mono: 6.6%
  Neu: 18.8%
  PT: 11.1 s
  Plat: 104.5 x10_4/uL
  RBC: 809 x10_4/ul
  Ret: 7%
  WBC: 96.6 x10_2/uL
  KIDNEY_L: 1.3 g
  KIDNEY_R: 1.4 g
  KIDNEY_TOTAL: 2.7 g
  LIVER: 14.7 g
  A/G: 1.5
  ALP: 558.4 IU/L
  ALT: 32.8 IU/L
  AST: 64 IU/L
  BUN: 21.4 mg/dL
  CRE: 0.6 mg/dL
  Ca: 10.2 mg/dL
  Cl: 107.4 meq/L
  DBIL: 0 mg/dL
  GLC: 221.2 mg/dL
  IP: 6.6 mg/dL
  K: 4.4 meq/L
  LDH: 83 IU/L
  Na: 141 meq/L
  PL: 151.4 mg/dL
  RALB: 3.6 g/dL
  TBIL: 0.3 mg/dL
  TC: 70.6 mg/dL
  TG: 181.6 mg/dL
  TP: 6.1 g/dL
  gamma-GTP: 1.4 IU/L
